Test in all cases: NCI-60 cell line screen, 48 h
Assay [1] has as its system SNB-19.
Assay [2] deals with U-251.
Assay [3] concerns SF-295.
Assay [4] deals with COLO 205.
The test system of assay [5] is 786-0.
For assay [6], the system named is SK-MEL-2.
Assay [7] concerns DMS-273.
The subject of assay [8] is UO-31.
In assay [9] the test system is SK-MEL-5.
The subject of assay [10] is OVCAR-5.
Assay [11] deals with LOX IMVI.
Assay [12] has as its system SK-MEL-28.
Assay [13] deals with HCT-116.
For assay [14], the system named is SNB-75.
Assay [15] deals with CAKI-1.
The subject of assay [16] is NCI-H226.
The test system of assay [17] is HOP-92.
The subject of assay [18] is DU-145.
In assay [19] the test system is T47D.
For assay [20], the system named is MCF7.

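All cell lines were grown in 96-well plates and treated with compound for 48 hours. Here, GI50 denotes the concentration required for 50% inhibition of growth.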 The source made the active and inactive calls. No stated cut-off is given here; in the data, active = GI50 up to about 1.1 µM and inactive = higher. *1 amine or outer side, *2 acyl side, *3 side chain or, on linkers, in order; H or OH if unused. Where a SMILES comes first, the peptide text is derived from it. Bridges are numbered along the chain shown (N, C = ends). [ ]: non-standard residue; d: D form. ξ: configuration not given here. X10 = CCC(C)C(N[*:1])C(O)CC(=O)O[C@H](C(=O)C(C)C(=O)[*:2])C(C)C; NMeY = CN[C@@H](Cc1ccc(O)cc1)C(=O)O; ξNMeL = CNC(CC(C)C)C(=O)O; ξT = CC(O)C(N)C(=O)O Where only a bound is given, the exact number is not on record here.

`CC(C(=O)N1C(=O)N(C(=O)C(C)C(O)c2ccccc2)C2CCCCC21)C(O)c1ccccc1` (stereo not drawn): the GI50 was 92.7 µM (inactive) in assay [1]; > 100 µM (inactive) in assay [2]; 34.9 µM (inactive) in [3]; > 100 µM (inactive) in assay [4]; > 100 µM (inactive) in assay [5]; 30.3 µM (inactive) in [6]. Further, the GI50 in assay [7] is > 100 µM (inactive); in assay [8], 34.6 µM (inactive); in assay [9], 30.1 µM (inactive); in [10], > 100 µM (inactive); in assay [11], 79.4 µM (inactive); in [12], > 100 µM (inactive). For the same molecule, the GI50 in assay [13] was > 100 µM (inactive).

With `O=C1NC(=S)NC(=O)C1=Cc1cc2c(cc1[N+](=O)[O-])OCO2`, the GI50 in [1] was > 100 µM (inactive); in [2] it was > 100 µM (inactive); in assay [4], > 100 µM (inactive); in [5], 62.8 µM (inactive); in assay [6], > 100 µM (inactive); in assay [7], 63.1 µM (inactive). Besides, the GI50 in assay [8] was > 100 µM (inactive); in [9], > 100 µM (inactive); in [14], > 100 µM (inactive); in [15], 94.4 µM (inactive); in assay [16], > 100 µM (inactive); in assay [12] it was > 100 µM (inactive). For the same molecule, in assay [13], the GI50 is 54.1 µM (inactive).

As to `Cc1cc(C)c(N)c(C)c1N`, the GI50 in assay [1], in [2], in assay [3], in [4], in [5] and in assay [6] was > 100 µM (inactive) throughout. For the same molecule, the GI50 in [7], in assay [8], in [17], in [9], in assay [10] and in assay [11] was > 100 µM (inactive) throughout. Besides, the GI50 in assay [12] and in assay [13] was > 100 µM (inactive) each time.

For `CNC(=S)OCCC(C)CCCC(C)C` (stereo not drawn), the GI50 was 16.9 µM (inactive) in [1]; 15.5 µM (inactive) in assay [2]; 21.5 µM (inactive) in [3]; 17.2 µM (inactive) in assay [5]; 13.7 µM (inactive) in assay [6]; 16.8 µM (inactive) in assay [7]. Moreover, the GI50 was 7.16 µM (inactive) in [8]; 17.5 µM (inactive) in assay [9]; 20.8 µM (inactive) in assay [14]; 11.3 µM (inactive) in assay [10]; 17.1 µM (inactive) in assay [15]; 13.2 µM (inactive) in assay [11]. Besides, the GI50 in assay [12] is 24.7 µM (inactive); in assay [13] it was 16.7 µM (inactive).

Take `CCC(C)C1NC(=O)C(NC(=O)C(CC(C)C)N(C)C(=O)[C@@H]2CCCN2)C(C)OC(=O)[C@H](Cc2ccc(OC)cc2)N(C)C(=O)[C@@H]2CCCN2C(=O)[C@H](CC(C)C)NC(=O)C(C)C(=O)[C@H](C(C)C)OC(=O)CC1O` (stereo partly drawn) (H-P[ξNMeL][ξT][X10]LP[NMeY](Me); ester 3-C): the GI50 is 0.000721 µM (active) in assay [1]; < 0.0001 µM (active) in assay [2]; 0.00144 µM (active) in assay [3]; 0.000153 µM (active) in assay [4]; 0.000564 µM (active) in assay [5]; < 0.01 µM (active) in assay [6]. Further, the GI50 was 0.00227 µM (active) in [18]; 0.0214 µM (active) in assay [8]; 0.00121 µM (active) in assay [17]; < 0.0001 µM (active) in assay [9]; 0.000682 µM (active) in [14]; < 0.01 µM (active) in [10]. Also, the GI50 in assay [15] is 0.00869 µM (active); in assay [11], < 0.0001 µM (active); in [16], < 0.01 µM (active); in [19], 0.000185 µM (active); in assay [12], 0.00014 µM (active); in [13], < 0.0001 µM (active). Further, the GI50 in assay [20] is < 0.0001 µM (active).

Values taken from ChEMBL document CHEMBL1201862, “PubChem BioAssay data set” (2004).
